These results are taken from the RepoRT retention time repository.

Common to all, as to conditions: stereoisomer not certain
A short description of data set [1]: RP, Waters ACQUITY UPLC HSS T3, 0.4 mL/min; A: water + 0.01% formic acid; B: 50% water + 50% acetonitrile + 0.01% formic acid; gradient (min/%B) 0/0 0.5/0 9/30 10/50 15/100 16/100 17/0 25/0.
The nature of data set [2]: HILIC, Waters Atlantis Premier BEH Z-HILIC, 100 × 2.1 mm, 1.7 µm, 40 °C, 0.15 mL/min, estimated dead time 1.5 min; A: water + 20 mM ammonium carbonate + 5 µM medronic acid; B: 10% water + 90% acetonitrile + 2 mM ammonium carbonate + 0.5 µM medronic acid; gradient (min/%B) 0/97 18/55 18.1/20 21.5/20 22/97 23.5/97 25.5/97.
Data set [3] in a line: HILIC, Waters Atlantis Premier BEH Z-HILIC, 100 × 2.1 mm, 1.7 µm, 40 °C, 0.15 mL/min, estimated dead time 1.5 min; A: water + 20 mM ammonium carbonate + 5 µM medronic acid; B: 10% water + 90% acetonitrile + 2 mM ammonium carbonate + 0.5 µM medronic acid; gradient (min/%B) 0/95 18/50 18.1/20 21.5/20 22/95 23.5/95 25.5/95.
Data set [4] can be described thus: RP, Waters ACQUITY UPLC BEH C18, 100 × 2.1 mm, 1.7 µm, 35 °C, 0.3 mL/min, estimated dead time 0.73 min; A: water + 0.1% formic acid, pH 3; B: methanol; gradient (min/%B) 0/10 1.6/10 2/20 6/70 7/70 14/90 17.5/90 18/95 21/95.
Data set [5] can be described thus: RP, Waters ACQUITY UPLC BEH C18, 100 × 2.1 mm, 1.7 µm, 35 °C, 0.3 mL/min, estimated dead time 0.73 min; A: water + 0.1% formic acid, pH 3; B: methanol; gradient (min/%B) 0/0 1.6/0 2/20 6/70 7/70 14/90 17.5/90 18/95 21/95.
The nature of data set [6]: RP, Waters ACQUITY UPLC BEH C18, 100 × 2.1 mm, 1.7 µm, 35 °C, 0.25 mL/min, estimated dead time 0.88 min; A: water + 0.1% acetic acid, pH 3; B: acetonitrile; gradient (min/%B) 0/10 1/10 2.5/15 4/22 6/38 9/65 12/80 16/100 19/100.

As for `COC1C(O)C(CO)OC1n1cnc2c(N)ncnc21` (configuration not stated) [2'-O-methyladenosine], the LC retention time in data set [1] stood at 5.78 min.

Turning to `COC1C(O)C(CO)OC1n1cnc2c(=O)[nH]c(N)nc21` (configuration not stated) [2'-O-methylguanosine], the LC retention time in data set [1] amounted to 5.34 min.

As for `COC1C(c2c[nH]c(=O)[nH]c2=O)OC(CO)C1O` (configuration not stated) [2'-O-methylpseudouridine], in data set [1], the LC retention time came to 4.95 min.

On to `COC1C(O)C(CO)OC1n1ccc(=O)[nH]c1=O` (configuration not stated) [2'-O-methyluridine], for which the LC retention time in data set [1] was found to be 4.79 min.

In the case of `O=C(O)CCC(=O)C(=O)O` [2-Oxoglutaric acid], the LC retention time in data set [2] was 9.47 min; in data set [3], 8.54 min.

As for `O=C(O)CCC(O)C(=O)O` (configuration not stated) [2-hydroxy glutaric acid], the figures for the LC retention time in data set [2] and in data set [3] were 10 min and 8.97 min, respectively.

`CCCC(=O)OC(CC(=O)[O-])C[N+](C)(C)C` (configuration not stated) [Butyrylcarnitine]: the LC retention time in data set [4] is 2.75 min.

For the compound `O=C(O)CC(O)(CC(=O)O)C(=O)O` [Citric acid], the results for the LC retention time in data set [2] and in data set [3] were 14.1 min and 12.9 min, respectively.

With `NC(CCC(=O)NC(CS)C(=O)NCC(=O)O)C(=O)O` (configuration not stated) [Glutathione], the LC retention time was 2 min in data set [5] and 1 min in data set [4].

As for `O=C(O)CC(C(=O)O)C(O)C(=O)O` (configuration not stated) [Isocitric acid], the results for the LC retention time in data set [2] and in data set [3] were 13.9 min and 12.6 min, respectively.

In the case of `CC(O)C(=O)O` (configuration not stated) [Lactic acid], the LC retention time in data set [4] is 1.11 min.

Take `CC(C)CC(N)C(=O)O` (configuration not stated) [Leucine]: in data set [4], the LC retention time was 1.62 min.

Turning to `CC(=O)NC(Cc1ccccc1)C(=O)O` (configuration not stated) [N-acetylphenylalanine], the LC retention time in data set [6] is 5 min.

In the case of `CC(C)CC(NC(=O)C(C)O)C(=O)O` (configuration not stated) [N-lactoyl-leucine], in data set [6], the LC retention time was 5 min.

Regarding `NC(CCC(=O)NC(CSSCC(NC(=O)CCC(N)C(=O)O)C(=O)NCC(=O)O)C(=O)NCC(=O)O)C(=O)O` (configuration not stated) [Oxidized glutathione], the LC retention time in data set [5] was 3 min; in data set [4] it was 1.04 min.

In the case of `C=C(OP(=O)(O)O)C(=O)O` [PEP], the LC retention time in data set [2] was 13.8 min; in data set [3] it was 12.5 min.

Consider `NC(Cc1ccccc1)C(=O)O` (configuration not stated) [Phenylalanine], for which the LC retention time in data set [6] is 2 min.

With `O=C(O)C(CO)OP(=O)(O)O` (configuration not stated) [Phosphoglyceric acid A], the LC retention time in data set [2] was 12.9 min; in data set [3] it was 11.6 min.

Turning to `NC(CCC(=O)NC(CSCO)C(=O)NCC(=O)O)C(=O)O` (stereo not drawn) [S-(Hydroxymethyl)glutathione], the LC retention time in data set [5] is 1.7 min.

Take `O=C(O)CCC(=O)O` [Succinic Acid]: the figures for the LC retention time in data set [2] and in data set [3] were 10 min and 9.06 min, respectively.

For `O=C(CO)COP(=O)(O)O` [Triose phosphate], the results for the LC retention time in data set [2] and in data set [3] were 10.7 min and 9.62 min, respectively.

For `Nc1ncnc2c1ncn2C1OC(CO)C(O)C1O` (configuration not stated) [adenosine], the LC retention time in data set [1] amounted to 4.57 min.

Turning to `CCC(=O)OC(CC(=O)[O-])C[N+](C)(C)C` (configuration not stated) [carnitine-C3], the LC retention time is 7.17 min in data set [2] and 6.36 min in data set [3].

For `Nc1ccn(C2OC(CO)C(O)C2O)c(=O)n1` (configuration not stated) [cytidine], in data set [1], the LC retention time was found to be 0.92 min.

With `Nc1nc2c(ncn2C2OC(CO)C(O)C2O)c(=O)[nH]1` (configuration not stated) [guanosine], the LC retention time in data set [1] turned out to be 4.08 min.

In the case of `O=c1ccn(C2OC(CO)C(O)C2O)c(=O)[nH]1` (configuration not stated) [uridine], the LC retention time in data set [1] is 2.04 min.
